The source of these data is patent US9260488B2, “Replacement therapy for dental caries” (Oragenics, Inc., priority 2012, dated 2016).

Holding throughout (experiment): Minimum inhibitory concentration (CLSI M07-8A, modified)
Common to all, as to assay type: cell-based

In assay [1] the test system is Micrococcus luteus ATCC10240. As to conditions: peptide purified to about 90%; THyex medium; 24 hour incubation. As for the experimental part: (§1) Wild-type mutacin 1140, mutacin 1140 with a F1I mutation, mutacin 1140 with a W4A mutation, and mutacin 1140 with a R13D mutation was purified to about 90% purity (measured via HPLC). The minimum inhibitory concentration (MIC) of MU1140 and variants of MU1140 was determined against several bacteria. The MIC is the lowest concentration of MU1140 that will inhibit the visible growth of a microorganism after 24 hour incubation. A lower MIC is an indication of greater inhibitory activity. Preparation of the antimicrobial agent and bacterial inoculum for minimum inhibitory concentrations (MICs) was performed by following the method described in Clinical Laboratory Standard Institute (CLSI) M07-8A with some minor modifications. Streptococcus mutans UA159 was tested overnight in a shaking incubator to maintain uniform dispersion of the bacteria. Clostridium difficile UK1 was tested in an anaerobic chamber at 37° C. The medium used was THyex.

Assay [2] relates to Streptococcus mutans UA159. As to conditions: peptide purified to about 90%; THyex medium; 24 hour incubation; shaking incubator overnight. Here is the method: as §1
Assay [3] has as its system Staphylococcus aureus FA1. As to conditions: peptide purified to about 90%; THyex medium; 24 hour incubation. As for the experimental part: as §1
Assay [4] relates to Clostridium difficile UK1. The settings on record: peptide purified to about 90%; THyex medium; 24 hour incubation; anaerobic chamber at 37° C. Here is the method: as §1
In assay [5] the test system is Streptococcus pneumonia FA1. As to conditions: peptide purified to about 90%; THyex medium; 24 hour incubation. Here is the method:
as §1

As to “Mu1140 Wild-type: wild-type lantibiotic mutacin MU1140 (SEQ ID NO:1) produced by S. mutans strain JH1140 (ATCC 55676)”, in assay [1], the “MIC Micrococcus luteus ATCC10240” value is recorded as 0.0625. For the same substance, the “MIC Streptococcus mutans UA159” value in assay [2] turned out to be 2. Also, the “MIC Staphylococcus aureus FA1” value in assay [3] stood at 16. The “MIC Clostridium difficile UK1” value in assay [4] was 16. Also, the “MIC Streptococcus pneumonia FA1” value in assay [5] is recorded as 0.5.
